The results in this text go back to publication PMC5831858, “Pharmacological characterisation of CR6086, a potent prostaglandin E2 receptor 4 antagonist, as a new potential disease-modifying anti-rheumatic drug” (Arthritis Research & Therapy, 2018).

In assay [1] the target is ETA (Homo sapiens, UniProt P25101). As to the kind of experiment: Endothelin receptor ETA binding. As to conditions: [^125I]endothelin-1, Human recombinant CHO cells, read-out: CR6086 Activity at 10µM.
Assay [2] concerns α1 (non-selective). As to the kind of experiment: Adrenergic receptor α1 binding. The note with it: [^3H]prazosin, Rat cerebral cortex.
For assay [3], the target named is D4,4 (Homo sapiens, UniProt P21917). As to the kind of experiment: Dopamine receptor D4,4 binding. The note with it: [^3H]methyl-spiperone, Human recombinant CHO cells, read-out: CR6086 Activity at 10µM.
Chain of D4,4 (P21917 whole entry): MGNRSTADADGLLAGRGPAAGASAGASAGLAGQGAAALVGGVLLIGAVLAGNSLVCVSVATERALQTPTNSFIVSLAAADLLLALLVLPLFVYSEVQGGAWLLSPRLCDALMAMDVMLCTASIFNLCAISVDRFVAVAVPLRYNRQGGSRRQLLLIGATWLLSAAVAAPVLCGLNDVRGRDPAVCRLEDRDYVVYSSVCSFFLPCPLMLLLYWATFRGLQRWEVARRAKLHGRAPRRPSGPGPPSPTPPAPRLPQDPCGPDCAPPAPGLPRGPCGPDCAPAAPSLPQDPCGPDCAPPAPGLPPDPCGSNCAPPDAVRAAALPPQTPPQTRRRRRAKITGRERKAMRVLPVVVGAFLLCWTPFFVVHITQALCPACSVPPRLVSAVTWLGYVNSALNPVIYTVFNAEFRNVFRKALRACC
For assay [4], the target named is CysLT2 (Cys-LTs) (Homo sapiens, UniProt Q9NS75). As to the kind of experiment: Eicosanoid receptor CysLT2 binding. As to conditions: [^3H]LTD4, HEK-293 cells, read-out: CR6086 Activity at 10µM.
Chain of CysLT2 (Cys-LTs) (Q9NS75 whole entry, species assumed): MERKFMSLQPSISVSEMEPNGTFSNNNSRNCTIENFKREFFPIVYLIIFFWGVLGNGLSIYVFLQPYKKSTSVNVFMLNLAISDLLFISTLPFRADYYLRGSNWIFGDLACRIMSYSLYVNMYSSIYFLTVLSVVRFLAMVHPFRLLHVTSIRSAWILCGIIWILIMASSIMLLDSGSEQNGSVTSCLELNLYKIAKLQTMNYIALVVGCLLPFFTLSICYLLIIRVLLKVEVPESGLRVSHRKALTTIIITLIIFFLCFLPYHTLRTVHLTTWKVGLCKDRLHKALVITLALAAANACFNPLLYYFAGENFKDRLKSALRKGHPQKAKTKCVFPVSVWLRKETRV
Assay [5] addresses Y1 (Homo sapiens, UniProt P25929). As to the kind of experiment: Neuropeptide Y receptor Y1 binding. The note with it: [^125I]peptide YY, SK-N-MC cells (endogenous), read-out: CR6086 Activity at 10µM.
The target of assay [6] is AT1 (Homo sapiens, UniProt P30556). As to the kind of experiment: Angiotensin receptor AT1 binding. The note with it: [^125I][Sar^1, IIe^8]-AT-II, Human recombinant HEK-293 cells, read-out: CR6086 Activity at 10µM.
Chain of AT1 (P30556 whole entry): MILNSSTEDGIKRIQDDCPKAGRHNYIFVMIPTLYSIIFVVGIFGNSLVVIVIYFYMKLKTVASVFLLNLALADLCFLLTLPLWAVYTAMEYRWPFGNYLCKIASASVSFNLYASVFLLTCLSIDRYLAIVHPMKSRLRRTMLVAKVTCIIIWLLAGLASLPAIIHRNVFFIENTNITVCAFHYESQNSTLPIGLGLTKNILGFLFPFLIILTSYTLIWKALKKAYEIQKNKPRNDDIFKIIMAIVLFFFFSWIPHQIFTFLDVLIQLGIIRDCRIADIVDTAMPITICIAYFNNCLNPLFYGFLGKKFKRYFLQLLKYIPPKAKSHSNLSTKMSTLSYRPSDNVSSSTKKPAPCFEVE
For assay [7], the target named is ETB (Homo sapiens, UniProt P24530). As to the kind of experiment: Endothelin receptor ETB binding. As to conditions: [^125I]endothelin-1, Human recombinant CHO cells, read-out: CR6086 Activity at 10µM.
Chain of ETB (P24530 27-442): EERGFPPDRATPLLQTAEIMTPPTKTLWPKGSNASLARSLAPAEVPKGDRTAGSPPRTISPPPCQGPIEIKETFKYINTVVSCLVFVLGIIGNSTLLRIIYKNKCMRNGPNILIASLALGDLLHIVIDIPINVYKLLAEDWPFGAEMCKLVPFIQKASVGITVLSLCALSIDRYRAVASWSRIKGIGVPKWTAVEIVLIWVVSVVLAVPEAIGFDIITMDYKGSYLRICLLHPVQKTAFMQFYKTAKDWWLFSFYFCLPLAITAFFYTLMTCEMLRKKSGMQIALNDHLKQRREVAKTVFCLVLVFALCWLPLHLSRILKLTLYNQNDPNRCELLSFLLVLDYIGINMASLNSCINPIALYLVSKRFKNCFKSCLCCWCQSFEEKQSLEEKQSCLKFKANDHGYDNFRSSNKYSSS
Assay [8] concerns the target 5-HT transporter (Homo sapiens, UniProt P31645). As to the kind of experiment: 5-HT transporter binding. The note with it: [^3H]imipramine, Human recombinant CHO cells, read-out: CR6086 Activity at 10µM.
For assay [9], the target named is Y2 (Homo sapiens, UniProt P49146). As to the kind of experiment: Neuropeptide Y receptor Y2 binding. The note with it: [^125I]peptide YY, KAN-TS cells, read-out: CR6086 Activity at 10µM.
Chain of Y2 (P49146 whole entry): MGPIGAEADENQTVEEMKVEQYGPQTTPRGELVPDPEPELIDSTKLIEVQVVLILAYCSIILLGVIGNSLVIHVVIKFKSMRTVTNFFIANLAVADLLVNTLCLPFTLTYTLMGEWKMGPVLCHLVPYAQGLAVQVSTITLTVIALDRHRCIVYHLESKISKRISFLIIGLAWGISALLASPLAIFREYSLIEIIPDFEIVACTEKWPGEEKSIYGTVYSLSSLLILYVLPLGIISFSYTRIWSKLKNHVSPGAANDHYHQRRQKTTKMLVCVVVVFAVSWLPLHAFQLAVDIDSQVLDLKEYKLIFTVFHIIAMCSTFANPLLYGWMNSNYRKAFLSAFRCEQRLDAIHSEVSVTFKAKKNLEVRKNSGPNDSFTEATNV
In assay [10] the target is D2S (Homo sapiens, UniProt P14416). As to the kind of experiment: Dopamine receptor D2S binding. As to conditions: [^3H]methyl-spiperone, Human recombinant HEK-293 cells, read-out: CR6086 Activity at 10µM.
Chain of D2S (P14416 1-414 isoform P14416-2): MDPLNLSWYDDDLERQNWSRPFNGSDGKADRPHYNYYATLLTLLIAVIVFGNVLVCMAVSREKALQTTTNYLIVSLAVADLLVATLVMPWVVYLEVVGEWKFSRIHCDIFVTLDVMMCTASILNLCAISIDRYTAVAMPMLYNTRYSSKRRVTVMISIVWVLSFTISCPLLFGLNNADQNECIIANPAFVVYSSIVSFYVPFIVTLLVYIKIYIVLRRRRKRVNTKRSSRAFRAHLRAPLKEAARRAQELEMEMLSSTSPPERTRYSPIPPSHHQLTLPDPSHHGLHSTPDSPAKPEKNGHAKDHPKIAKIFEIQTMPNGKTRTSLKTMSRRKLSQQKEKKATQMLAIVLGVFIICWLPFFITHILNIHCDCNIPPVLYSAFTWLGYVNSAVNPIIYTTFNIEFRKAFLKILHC
Assay [11] concerns the target T1, mouse EP4 receptor (Mus musculus, UniProt P32240).
T1 construct: the cDNA encoding the full-length rat (NM_032076) or mouse (NM_001136079) EP4 receptors; host or cells: HEK293 (transient)
As to the kind of experiment: EP4 radioligand binding assay ([^3H]PGE2), mouse receptor. The note with it: [^3H]PGE2 displacement; transiently transfected HEK293 membranes; read-out: Ki CR6086. From the text:
For rodent EP4 receptor cloning, the cDNA encoding the full-length rat (NM_032076) or mouse (NM_001136079) EP4 receptors cloned in pCMV6 entry was provided by OriGene Inc. (TrueORF Gold, catalogue numbers RN206839 and MC216813; OriGene, Rockville, MD, USA). Expression of rat and mouse receptors was obtained by transfecting HEK293 cells with the respective vector using Lipofectamine 3000 reagent (Thermo Fisher Scientific) according to the manufacturer’s instructions.
Membranes expressing the human EP4 receptor were prepared from stably transfected HEK293 cell line. […] Protein content of the cell membrane suspension was determined using bovine serum albumin (BSA) as a standard.
Experimental procedures were performed according to the method of Abramovitz et al.. […] The residual [^3H]PGE2 binding was determined using a solid scintillation counter (TopCount; PerkinElmer) after at least 1 h of stabilisation. In saturation binding studies, isotherm-binding curves generated with six to eight different concentrations of [^3H]PGE2 (from 0.5 to 25 nM) were evaluated. […]
Specific binding to the receptors was defined as the difference between total binding and non-specific binding, as determined in the presence of an excess of unlabelled ligand. […] Competition curves were analysed to assess the half-maximal inhibitory concentration (IC50). […] The results of replicated curves were expressed as mean ± SEM.

Assay [12] concerns the target GAL2 (Homo sapiens, UniProt O43603). As to the kind of experiment: Galanin receptor GAL2 binding. As to conditions: [^125I]galanin, Human recombinant CHO cells, read-out: CR6086 Activity at 10µM.

T1 sequence (P32240 whole entry): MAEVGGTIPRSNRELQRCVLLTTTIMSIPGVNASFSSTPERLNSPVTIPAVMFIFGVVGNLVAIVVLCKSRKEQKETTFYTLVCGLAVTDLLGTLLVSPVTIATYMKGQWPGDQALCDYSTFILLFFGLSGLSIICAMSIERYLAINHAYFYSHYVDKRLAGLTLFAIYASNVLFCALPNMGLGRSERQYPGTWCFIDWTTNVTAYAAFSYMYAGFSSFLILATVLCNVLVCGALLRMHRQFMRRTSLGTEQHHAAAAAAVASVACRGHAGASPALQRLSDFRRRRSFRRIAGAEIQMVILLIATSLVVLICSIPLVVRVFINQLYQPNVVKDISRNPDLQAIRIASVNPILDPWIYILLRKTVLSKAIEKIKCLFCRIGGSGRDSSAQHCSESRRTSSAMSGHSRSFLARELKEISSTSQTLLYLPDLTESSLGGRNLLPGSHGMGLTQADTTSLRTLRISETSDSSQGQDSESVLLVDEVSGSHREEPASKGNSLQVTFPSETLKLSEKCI
Chain of Y1 (P25929 whole entry): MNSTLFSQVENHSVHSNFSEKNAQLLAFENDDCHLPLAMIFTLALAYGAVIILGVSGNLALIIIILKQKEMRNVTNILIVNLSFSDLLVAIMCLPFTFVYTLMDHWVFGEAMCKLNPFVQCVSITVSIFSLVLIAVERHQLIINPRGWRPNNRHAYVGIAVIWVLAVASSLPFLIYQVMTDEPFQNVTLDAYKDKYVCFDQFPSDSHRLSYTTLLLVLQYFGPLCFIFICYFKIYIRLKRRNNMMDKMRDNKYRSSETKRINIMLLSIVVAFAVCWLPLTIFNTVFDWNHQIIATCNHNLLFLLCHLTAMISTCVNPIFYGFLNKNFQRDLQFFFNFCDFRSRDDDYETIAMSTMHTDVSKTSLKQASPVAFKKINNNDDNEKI
Chain of GAL2 (O43603 whole entry): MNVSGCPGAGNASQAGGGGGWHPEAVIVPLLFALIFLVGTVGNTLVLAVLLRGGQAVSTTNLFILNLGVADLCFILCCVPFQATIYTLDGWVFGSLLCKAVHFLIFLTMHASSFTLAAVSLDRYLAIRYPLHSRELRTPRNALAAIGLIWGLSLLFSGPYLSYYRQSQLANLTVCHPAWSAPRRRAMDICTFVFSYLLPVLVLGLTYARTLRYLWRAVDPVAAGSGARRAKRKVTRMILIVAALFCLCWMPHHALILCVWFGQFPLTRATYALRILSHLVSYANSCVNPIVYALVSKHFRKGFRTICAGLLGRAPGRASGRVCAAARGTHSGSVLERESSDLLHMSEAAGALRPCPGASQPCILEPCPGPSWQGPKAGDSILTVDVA
Chain of ETA (P25101 21-427): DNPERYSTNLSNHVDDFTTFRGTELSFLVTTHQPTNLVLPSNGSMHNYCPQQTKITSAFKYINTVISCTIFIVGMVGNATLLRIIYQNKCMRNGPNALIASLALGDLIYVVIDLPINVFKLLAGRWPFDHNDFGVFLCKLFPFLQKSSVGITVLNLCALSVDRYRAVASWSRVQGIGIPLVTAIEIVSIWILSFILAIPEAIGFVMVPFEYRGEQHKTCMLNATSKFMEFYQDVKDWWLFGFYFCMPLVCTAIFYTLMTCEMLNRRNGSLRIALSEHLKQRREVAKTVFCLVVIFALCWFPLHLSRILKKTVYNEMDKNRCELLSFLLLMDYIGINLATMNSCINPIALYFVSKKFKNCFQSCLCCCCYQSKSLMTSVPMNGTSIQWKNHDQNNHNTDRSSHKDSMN
Chain of 5-HT transporter (P31645 whole entry): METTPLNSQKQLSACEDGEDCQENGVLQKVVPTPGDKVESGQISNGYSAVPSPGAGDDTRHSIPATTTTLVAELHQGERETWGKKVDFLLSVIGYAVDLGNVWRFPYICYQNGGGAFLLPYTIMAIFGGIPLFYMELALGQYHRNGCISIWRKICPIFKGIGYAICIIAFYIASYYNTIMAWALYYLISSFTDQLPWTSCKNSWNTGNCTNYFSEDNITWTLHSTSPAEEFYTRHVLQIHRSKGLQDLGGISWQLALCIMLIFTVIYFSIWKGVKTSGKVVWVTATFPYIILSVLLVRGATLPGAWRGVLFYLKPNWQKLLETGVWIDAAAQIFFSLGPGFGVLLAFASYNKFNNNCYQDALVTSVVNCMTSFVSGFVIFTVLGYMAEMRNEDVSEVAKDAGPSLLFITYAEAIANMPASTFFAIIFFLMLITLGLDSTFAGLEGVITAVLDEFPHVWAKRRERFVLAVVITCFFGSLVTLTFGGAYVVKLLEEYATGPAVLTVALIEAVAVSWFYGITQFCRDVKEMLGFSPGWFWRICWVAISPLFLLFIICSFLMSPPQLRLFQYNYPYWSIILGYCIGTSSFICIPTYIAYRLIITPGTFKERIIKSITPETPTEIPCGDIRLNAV

In general, Ki refers to the equilibrium dissociation constant of an inhibitor or competing ligand from its target. As for `O=C([O-])c1ccc(C2(NC(=O)[C@H]3CC4(CCN3Cc3ccc(C(F)(F)F)cc3)CC4)CC2)cc1.[Na+]` [CR6086, Sodium (R)-4-(1-(6-(4-(trifluoromethyl)benzyl)-6-azaspiro[2.5]octane-5-carboxamido)cyclopropyl)benzoate], the inhibition at 10 µM in [1], in assay [3], in [4], in assay [5], in assay [6] and in [7] was less than 20% throughout. The inhibition at 10 µM in assay [8], in [9], in assay [10] and in assay [12] was less than 20% in each case. Further, the “CR6086 Activity at 10µM” value in assay [2] is given as “IN (IN = < 20% displacement or inhibition (all tables))”. Besides, the Ki in assay [11] was found to be 75.9 ± 7.6 nM.
